According to patent US7371207B2 (Wyeth, priority 2002, dated 2008):

Test system: gene expression in the kidney
Assay: GeneChip microarray survey of E2 regulated gene expression, kidney
Description: FIG. 1 depicts a pattern analysis generated by a GeneChip microarray analysis. […] Two hours following the final dose, the mice were euthanized and 13 tissues removed for RNA preparation. Two independent studies were performed, with total RNA pooled from two groups of three animals for each condition. Gene expression was quantified by GeneChip microarrays using murine U74 sub A arrays. Data were analyzed for patterns indicating either ERα or ERβ dependent regulation as shown. […] The number of genes in each tissue that matched the theoretical induction (↑) or repression (↓) patterns for ERα or ERβ are indicated.
FIGS. 2A-2C show a series of bar graphs showing gene expression levels of known genes regulated in the kidney in an ERα pattern. […] Expression was measured in two independent sets of animals, with two groups of animals for each treatment in each study. A gene name abbreviation is shown above each graph, with the corresponding Unigene designation shown below.
One week later, the animals were ovariectomized.
GeneChip—Total RNA was prepared separately from each individual organ by using Trizol (Invitrogen) followed by subsequent repurification on Rneasy columns (Qiagen). In general, two pools of RNA were created using equal amounts of RNA from three mice. For small organs such as pituitary, an equal amount of RNA from six animals was combined.
Target Preparation and Array Hybridization—Total RNA was used to generate biotin labeled cRNA target as described (8) which was hybridized to the murine MG_U74Av2 probe arrays (Affymetrix, Santa Clara, Calif.) for 16 h at 45° C. Eleven biotin-labeled cRNAs at defined concentration were spiked into each hybridization and used to convert average difference values to frequencies expressed as parts per million.
The resulting data set was queried for genes whose regulation was dependent on ERα or ERβ.

C[C@]12CC[C@@H]3c4ccc(O)cc4CC[C@H]3[C@@H]1CC[C@@H]2O [E2, 17β-estradiol]
E2 Expr (/evansm/Kidney, mouse/Study 1, U74v2/WT E2 kidney (81036)) (101979_at, AF055638, growth arrest and DNA-damage-inducible 45 gamma): 42 | E2 Expr (/evansm/Kidney, mouse/Study 1, U74v2/WT E2 kidney (81036)) (102693_f_at, J00389, kallikrein 13, kallikrein 26): 86 | E2 Expr (/evansm/Kidney, mouse/Study 1, U74v2/WT E2 kidney (81036)) (102788_s_at, U70132, paired-like homeodomain transcription factor 2): 23 | E2 Expr (/evansm/Kidney, mouse/Study 1, U74v2/WT E2 kidney (81036)) (103048_at, M12731, neuroblastoma myc-related oncogene 1): 39 | E2 Expr (/evansm/Kidney, mouse/Study 1, U74v2/WT E2 kidney (81036)) (103556_at, AI840158, angiopoletin-like 2): 24 | E2 Expr (/evansm/Kidney, mouse/Study 1, U74v2/WT E2 kidney (81036)) (103729_at, M36775, laminin, alpha 1): 17 | E2 Expr (/evansm/Kidney, mouse/Study 1, U74v2/WT E2 kidney (81036)) (103739_at, AW230977, RIKEN cDNA 1110017N23 gene): 33 | E2 Expr (/evansm/Kidney, mouse/Study 1, U74v2/WT E2 kidney (81036)) (104221_at, AB017189, solute carrier family 7 (cationic amino acid transporter, y+ system), member 5): 61 | E2 Expr (/evansm/Kidney, mouse/Study 1, U74v2/WT E2 kidney (81036)) (104477_at, AW047643, Mm.29940): 15 | E2 Expr (/evansm/Kidney, mouse/Study 1, U74v2/WT E2 kidney (81036)) (104495_f_at, Y00500, kallikrein 5): 115 | E2 Expr (/evansm/Kidney, mouse/Study 1, U74v2/WT E2 kidney (81036)) (104497_f_at, X03994, kallikrein 8): 53 | E2 Expr (/evansm/Kidney, mouse/Study 1, U74v2/WT E2 kidney (81036)) (104550_at, AW123273, ?CYP2S1 Cytochrome P450): 22 | E2 Expr (/evansm/Kidney, mouse/Study 1, U74v2/WT E2 kidney (81036)) (104776_at, AA600617, Mm.33238): 4 | E2 Expr (/evansm/Kidney, mouse/Study 1, U74v2/WT E2 kidney (81036)) (104880_at, AI843154, Mm.33730): 2 | E2 Expr (/evansm/Kidney, mouse/Study 1, U74v2/WT E2 kidney (81036)) (105737_at, AI851277, Mm.39735): 8 | E2 Expr (/evansm/Kidney, mouse/Study 1, U74v2/WT E2 kidney (81036)) (106195_at, AI851948, Mm.22808): 8 | E2 Expr (/evansm/Kidney, mouse/Study 1, U74v2/WT E2 kidney (81036)) (107993_at, AI847249, Mm.27680): 9 | E2 Expr (/evansm/Kidney, mouse/Study 1, U74v2/WT E2 kidney (81036)) (108265_at, AW120464, Mm.54158): 12 | E2 Expr (/evansm/Kidney, mouse/Study 1, U74v2/WT E2 kidney (81036)) (108749_at, AA611885, Mm.23047): 34 | E2 Expr (/evansm/Kidney, mouse/Study 1, U74v2/WT E2 kidney (81036)) (108851_at, AW125899, Ras-like protein): 10 | E2 Expr (/evansm/Kidney, mouse/Study 1, U74v2/WT E2 kidney (81036)) (109176_at, AI846059, RAI17 Retinoic acid Induced 17): 79 | E2 Expr (/evansm/Kidney, mouse/Study 1, U74v2/WT E2 kidney (81036)) (110591_at, AA270831, SH3 domain protien D19): 23 | E2 Expr (/evansm/Kidney, mouse/Study 1, U74v2/WT E2 kidney (81036)) (110767_r_at, AA959550, vascular endothelial growth factor): 37 | E2 Expr (/evansm/Kidney, mouse/Study 1, U74v2/WT E2 kidney (81036)) (110850_at, AA959574, NRIP1 Nuclear receptor interacting protein 1, RIP140): 76 | E2 Expr (/evansm/Kidney, mouse/Study 1, U74v2/WT E2 kidney (81036)) (111046_r_at, AI957367, 17b dehydrogenase A homolog): 17 | E2 Expr (/evansm/Kidney, mouse/Study 1, U74v2/WT E2 kidney (81036)) (113125_at, AI851671, signal transducer and activator of transcription 5B): 31 | E2 Expr (/evansm/Kidney, mouse/Study 1, U74v2/WT E2 kidney (81036)) (114903_at, AI447633, Mm.26357): 96 | E2 Expr (/evansm/Kidney, mouse/Study 1, U74v2/WT E2 kidney (81036)) (116273_at, AW123862, Mm.31953): 7 | E2 Expr (/evansm/Kidney, mouse/Study 1, U74v2/WT E2 kidney (81036)) (117208_at, AI838208, RIKEN cDNA 1110003O08 gene): 37 | E2 Expr (/evansm/Kidney, mouse/Study 1, U74v2/WT E2 kidney (81036)) (129147_r_at, AI931796, similar to TYROSINE-PROTEIN KINASE RECEPTOR TIE-1 PRECURSOR): 6 | E2 Expr (/evansm/Kidney, mouse/Study 1, U74v2/WT E2 kidney (81036)) (131149_at, AW214502, RIKEN cDNA 5033417D07 gene): 7 | E2 Expr (/evansm/Kidney, mouse/Study 1, U74v2/WT E2 kidney (81036)) (131226_at, AI842542, Mm.23157): 8 | E2 Expr (/evansm/Kidney, mouse/Study 1, U74v2/WT E2 kidney (81036)) (132403_at, AI788603, similar to TSC1_RAT HAMARTIN (TUBEROUS SCLEROSIS 1 PROTEIN HOMOLOG)): 19 | E2 Expr (/evansm/Kidney, mouse/Study 1, U74v2/WT E2 kidney (81036)) (133139_at, AW122295, regulator of G-protein signaling 4): 4 | E2 Expr (/evansm/Kidney, mouse/Study 1, U74v2/WT E2 kidney (81036)) (133672_at, AI451032, Mm.32389): 11 | E2 Expr (/evansm/Kidney, mouse/Study 1, U74v2/WT E2 kidney (81036)) (134303_at, AI553493, Mm.35319): 11 | E2 Expr (/evansm/Kidney, mouse/Study 1, U74v2/WT E2 kidney (81036)) (136270_at, AI854101, Highly similar to CRFB MOUSE CORTICOTROPIN-RELEASING FACTOR BINDING PROTEIN PRECURSOR): 12 | E2 Expr (/evansm/Kidney, mouse/Study 1, U74v2/WT E2 kidney (81036)) (137525_at, AI098139, Mm.38027): 4 | E2 Expr (/evansm/Kidney, mouse/Study 1, U74v2/WT E2 kidney (81036)) (139531_at, AW120795, Mm.45188): 40 | E2 Expr (/evansm/Kidney, mouse/Study 1, U74v2/WT E2 kidney (81036)) (162645_at, AI851427, protein kinase, cAMP dependent regulatory, type II beta): 11 | E2 Expr (/evansm/Kidney, mouse/Study 1, U74v2/WT E2 kidney (81036)) (162964_at, AI854153, regulator of G-protein signaling 4): 11 | E2 Expr (/evansm/Kidney, mouse/Study 1, U74v2/WT E2 kidney (81036)) (162969_at, AW123298, Edil3 EGF-like repeats and discordin I-like domains 3): 34 | E2 Expr (/evansm/Kidney, mouse/Study 1, U74v2/WT E2 kidney (81036)) (162976_at, AI838662, RIKEN cDNA 2700007F12 gene): 10 | E2 Expr (/evansm/Kidney, mouse/Study 1, U74v2/WT E2 kidney (81036)) (163186_at, AI852882, RIKEN cDNA 2610510B01 gene): 61 | E2 Expr (/evansm/Kidney, mouse/Study 1, U74v2/WT E2 kidney (81036)) (163224_at, AI843147, IGSF1 Immunoglobulin superfamily, member 1): 27 | E2 Expr (/evansm/Kidney, mouse/Study 1, U74v2/WT E2 kidney (81036)) (163370_at, AI591488, Osbpl3 Oxysterol binding protien-like 3): 10 | E2 Expr (/evansm/Kidney, mouse/Study 1, U74v2/WT E2 kidney (81036)) (163941_at, AI646761, RIKEN cDNA 1110018J23 gene): 71 | E2 Expr (/evansm/Kidney, mouse/Study 1, U74v2/WT E2 kidney (81036)) (164051_at, AV359458, Mm.17850): 195 | E2 Expr (/evansm/Kidney, mouse/Study 1, U74v2/WT E2 kidney (81036)) (164520_f_at, AV302474, Tmprss2 Transmembrane protease, serine 2): 6 | E2 Expr (/evansm/Kidney, mouse/Study 1, U74v2/WT E2 kidney (81036)) (165032_i_at, AV365688, RIKEN cDNA 4933429H19 gene): 42 | E2 Expr (/evansm/Kidney, mouse/Study 1, U74v2/WT E2 kidney (81036)) (165248_f_at, AV035328, placental lactogen 2): 38 | E2 Expr (/evansm/Kidney, mouse/Study 1, U74v2/WT E2 kidney (81036)) (165569_at, AI847273, Mm.22305): 5 | E2 Expr (/evansm/Kidney, mouse/Study 1, U74v2/WT E2 kidney (81036)) (165678_i_at, AI482191, Mm.33178): 11 | E2 Expr (/evansm/Kidney, mouse/Study 1, U74v2/WT E2 kidney (81036)) (165710_at, AA815844, sodium channel, nonvoltage-gated 1 gamma): 9 | E2 Expr (/evansm/Kidney, mouse/Study 1, U74v2/WT E2 kidney (81036)) (165772_at, AI851899, RIKEN cDNA 0610039J01 gene): 29 | E2 Expr (/evansm/Kidney, mouse/Study 1, U74v2/WT E2 kidney (81036)) (165866_f_at, AV291803, ribosomal protein L12): 40 | E2 Expr (/evansm/Kidney, mouse/Study 1, U74v2/WT E2 kidney (81036)) (166021_at, AI481830, Mm.49448): 12 | E2 Expr (/evansm/Kidney, mouse/Study 1, U74v2/WT E2 kidney (81036)) (166843_at, AI851523, Mm.200318): 174 | E2 Expr (/evansm/Kidney, mouse/Study 1, U74v2/WT E2 kidney (81036)) (166849_at, AI853080, Mm.40718): 16 | E2 Expr (/evansm/Kidney, mouse/Study 1, U74v2/WT E2 kidney (81036)) (167023_f_at, AV016619, biglycan): 3 | E2 Expr (/evansm/Kidney, mouse/Study 1, U74v2/WT E2 kidney (81036)) (168876_f_at, AV044014, kallikrein 21): 75 | E2 Expr (/evansm/Kidney, mouse/Study 1, U74v2/WT E2 kidney (81036)) (169068_i_at, AV206066, RIKEN cDNA 4930434J08 gene): 2 | E2 Expr (/evansm/Kidney, mouse/Study 1, U74v2/WT E2 kidney (81036)) (170686_f_at, AV362687, Mm.89845): 58 | E2 Expr (/evansm/Kidney, mouse/Study 1, U74v2/WT E2 kidney (81036)) (170896_at, AV066592, Immune associated nucleotide 4): 3 | E2 Expr (/evansm/Kidney, mouse/Study 1, U74v2/WT E2 kidney (81036)) (171390_i_at, AV299689, Mm.21070): 3 | ABCC3 expression in kidney (mRNA level): induced mRNA levels | NTT73 expression in kidney (mRNA level): increased mRNA levels | CIS2 expression in kidney (mouse, in vivo): induction | COR1 (RDC1) expression in kidney (mouse, in vivo): induced expression | CYP27B1 expression in kidney (mouse, in vivo): induction | ELF3 expression in kidney (mouse, in vivo): induced expression | GNBP3 expression in kidney (mouse, in vivo): induced expression | PHD2 expression in kidney (mouse, in vivo): induced expression | RGS3 expression in kidney (mouse, in vivo): induced expression | STAT5A expression in kidney (mouse, in vivo): induced expression | STAT5B expression in kidney (mouse, in vivo): induced expression
